Laboratory results from US20100209436A1, “METHOD FOR TREATING DISEASES RELATED TO MITOCHONDRIAL DYSFUNCTION” (priority 2007, published 2010).
Entries after “also recorded” stand apart in the source; their conditions may differ.

Legend:
Assay type in all cases: cell-based, human
[1] = tested on: OPA1 isoforms in HeLa cells; experiment: Ratios of OPA1 isoforms by western blot densitometry, uncoupler experiment
Method: (§1) a, HeLa cells and human fibroblasts were treated with CCCP (20 μM) for 6 h and total cell extracts were subjected to western blotting with OPA1 antibodies. b-d, Cells were treated or not (Control) with CCCP (20 μM) for 30 min, washed, and incubated further with medium lacking CCCP for the indicated time periods or CCCP (20 μM) was left for 6 h. In parallel, these experiments were performed in the presence of cycloheximide (CHX; 175 μg/ml). Cells were stained with MitoTracker (red) and with cytochrome c antibodies (green).
Cell pellets were lysed in Lämmli-buffer 1× and heated for 5 min at 95° C. Samples equivalent to ˜10^6 cells were loaded on a 10% acrylamid gel (12 cm high×16 cm wide plates separated by 1.5 mm thick spacers). Gels were run for 3.5 hours at constant 30 mA or until the 37 kD band of the BioRad Precision Plus Protein standard reaches the bottom of the gel. The proteins were transferred to a nitrocellulose membrane by semi-dry blotting for 1.5 hours at 200 mA using Tris/glycine buffer. The membrane was incubated in TBS buffer containing 5% non fat milk powder for 30 min. The membrane was then incubated in TBS buffer containing 5% non fat milk powder and affinity purified rabbit OPA1 antibodies (raised against the C-terminal peptide of OPA1: […] (SEQ ID No: 30)) diluted 1:500 for 1 hour. After three rapid washes to remove the primary antibody in excess, the membrane was further incubated for 1 hour in TBS containing 5% non fat milk powder and secondary antibodies anti rabbit conjugated to HRP (horseradish peroxidase) diluted 1:10,000 (BioRad). The membrane was then washed in TBS, once rapidly, and four more times for 5 min each. ECL reagent (enhanced chemoluminescence reagent) was used to reveal the different OPA1 isoform bands on the membrane. Expositions of 1 to 2 min were usually sufficient to detect all OPA1 forms. The compositions of the buffers and gels to be employed are as follows.
From the results of the below described uncoupler experiments using HeLa cells (Example 9; FIG. 9a), the ratio of the relative amount of various OPA1 isoforms was determined. For this purpose, total protein extracts were separated by SDS-PAGE and immunoblotted using an antibody raised against the C-terminus of OPA1. The western blot was scanned and densitometrically analysed using standard imaging software. The intensity of each band was determined and the background intensity was subtracted.

[2] = tested on: OPA1 isoforms in HeLa cells or fibroblasts; experiment: Uncoupler experiments: OPA1 isoform pattern by western blot; conditions: CCCP 20 μM 6 h
Method: as §1
d, OPA1 isoforms by western blot analysis. Extracts of untreated cells (C) and of cells treated for 6 h with CHX alone (+CHX 6 h) were used as controls.
It was further observed whether dissipation of the membrane potential is sufficient to trigger changes in abundance of OPA1 isoforms and fragmentation of mitochondria. […] Proteolytic processing occurs within mitochondria as shown by cellular fractionation experiments (FIG. 10c). This is specific for OPA1 since degradation of other mitochondrial proteins is not observed (FIG. 10c). Fragmentation of mitochondria occurred rapidly within 15 to 30 min after addition of CCCP (FIG. 9bc). Processing of OPA1 took place within the same narrow time frame (FIG. 9d). Impairment of fusion of mitochondria may therefore be due to rapid inactivation of OPA1 by proteolysis of large isoforms. […]

[3] = tested on: HeLa cells; experiment: Uncoupler experiments: mitochondrial morphology and cytochrome c by confocal fluorescence microscopy
Method: b, Quantification of mitochondrial morphology in cells: Tubular, at least one mitochondrial tubule of 5 μm or more; intermediate, at least one between 0.5 and 5 μm but none more than 5 μm; fragmented, none of more than 0.5 μm in length. Error bars represent standard deviation of five slides evaluated.
as §1
(§2) Live cells were fluorescently labeled with MitoTracker® Red CMXRos (Molecular probes, USA) for mitochondria or with 4′,6-diamidino-2-phenylindole dihydrochloride (DAPI; Molecular probes, USA) for the nucleus, subsequently fixed, and permeabilised. Immunostaining was carried out with mouse anti-cytochrome c monoclonal antibody (clone 6H2.B4; BD Biosciences) and chicken anti-GFP antibody (Ayes Lab Inc., USA). The following secondary antibodies conjugated to fluorescent dyes were used: Alexa Fluor® 488 anti-mouse IgG (H+L) (Molecular probes, USA), Cy3-conjugated anti-mouse IgG and Fluorescein (FITC)-conjugated anti-chicken IgG (Jackson Immunoresearch, USA). Cells were mounted with Prolong® Gold antifade reagent (Molecular probes, USA). All treatments were done according to the manufacturers' instructions. Mitochondrial morphology was analysed by confocal microscopy using a Zeiss LSM 510 (Carl Zeiss Microscopy, Jena, Germany) equipped with a 63× objective. For all imaging, 512×512 pixel images of single confocal planes were acquired and processed with the Bitplane Imaris 4 software. This technique was particularly employed for FIGS. 5 to 7 and 9 and the corresponding examples.

[4] = tested on: OPA1 isoforms in HeLa cells; experiment: Pulse-chase experiment of OPA1 isoforms; conditions: 20 μM CCCP for 1 hour during chase
Method: HeLa cells were subjected to radioactive labeling of newly synthesized proteins. After labeling cells were washed, incubated for the indicated time in the absence of radiolabeled amino acids (chase) either in the presence or the absence of CCCP (20 μM). Cells were lysed at indicated times of chase and subjected to immunoprecipitation with antibodies raised against OPA1. Elution fractions were analyzed by digital autoradiography (top panel) and the same membrane was subjected to western blot analysis using OPA1 antibodies (bottom panel). The different OPA1 isoforms are indicated by arrows and named L1-, L2-, S3-, S4- and S5-OPA1.
The large OPA1 isoforms l-OPA1#1 and l-OPA1#2 are converted to the small OPA1 isoforms s-OPA1#3, s-OPA1#4 and/or s-OPA1#5. […] Then cells were washed 3 times with PBS and 1 ml fresh DMEM medium +10% FCS without radioactive methione (chase) was added. Cells were either treated with 20 μM CCCP for 1 hour or not. OPA1 was immunoprecipitated using an antibody raised against the C-terminus of OPA1 and OPA1 was detected by autoradiography and by western-blotting after SDS-PAGE. […] Accordingly, it can be concluded that l-OPA1 isoforms are actually converted to s-OPA1 isofoms, in particular towards s-OPA1#5.

[5] = tested on: OPA1 processing in HeLa cells; experiment: Protease inhibitors on uncoupler-induced conversion of larger OPA1 isoforms to smaller isoforms; conditions: HeLa cells preincubated 10 min with inhibitor, then CCCP 25 min
Method: a, The protease inhibitor o-phenanthroline (o-Phe) and partially DCI (3,4-Dichloroisocoumarin), but not phenylmethylsulphonylfluoride (PMSF) block uncoupler induced conversion of larger OPA1 isoforms to smaller isoforms. HeLa cells were preincubated for 10 min with or without the protease inhibitors at the indicated concentration before CCCP (20 μM) was added. Cells were further incubated for 25 min before they were harvested, lysed in loading buffer, loaded on a SDS-PAGE, and immunoblotted with OPA1 antibodies.

[6] = tested on: HeLa cells; experiment: Staurosporine-induced apoptosis: mitochondrial fragmentation, cytochrome c release, OPA1 isoforms; conditions: 1 μM staurosporine
Method: HeLa cells were treated with 1 μM staurosporine for the indicated time periods, stained with MitoTracker (red) and with cytochrome c antibodies (green).
b, Cells were classified. Tubular, at least one mitochondrial tubule of 5 μm or more; intermediate, at least one between 0.5 and 5 μm but none more than 5 μm; fragmented, none of more than 0.5 μm in length. A representative experiment out of three is shown.
c, Cells were classified for cytochrome c release by immunostaining. Not released, completely colocalised with MitoTracker; intermediate, partly co-localised with MitoTracker; and released, not co-localised with MitoTracker.
d, OPA1 protein isoforms were determined by western blot analysis of total cell extracts. Total cell extracts (C) and isolated mitochondria (M) from untreated HeLa cells were used as controls.
as §2

[7] = HeLa +CCCP (20 μM, 6 h), densitometry of western blot

## N#CC(C#N)=NNc1cccc(Cl)c1 [CCCP, carbonyl cyanide 3-chlorophenylhydrazone]
[1]; [7]
  OPA1#3 + #4 + #5/ all bands %: 93.0%
  OPA1#3 + #5/ all bands %: 64.8%
  OPA1#3/ all bands %: 19.2%
  OPA1#4/ all bands %: 28.2%
  OPA1#5/ all bands %: 45.6%
[1]; HeLa +CCCP versus HeLa −CCCP
  fold increase of OPA1#3 + #4 + #5/ all bands: 2.0 fold
  fold increase of OPA1#3 + #5/ all bands: 3.2 fold
  fold increase of OPA1#3/ all bands: 1.9 fold
  fold increase of OPA1#4/ all bands: 1.0 fold
  fold increase of OPA1#5/ all bands: 4.4 fold
[2]
  change of OPA1 isoform pattern: dramatic shift of OPA1 isoforms towards the smaller isoforms
[3]; CCCP 20 μM
  time to fragmentation of mitochondria after addition: 15 to 30 min
[3]; CCCP 20 μM 30 min, then washed
  mitochondrial morphology upon removal of the uncoupler: normal mitochondrial morphology was recovered
[3]; CCCP treatment
  cytochrome c release: not accompanied by cytochrome c release
[4]
  change of OPA1 isoforms in pulse-chase (autoradiography and western blot): shift from the large isoforms to the short isoforms

## O=c1oc(Cl)c(Cl)c2ccccc12 [DCI, 3,4-Dichloroisocoumarin]
[5]
  block of uncoupler (CCCP 20 μM) induced proteolytic processing of OPA1: (at least partially) blocked

## O=S(=O)(F)Cc1ccccc1 [PMSF, phenylmethylsulphonylfluoride]
[5]
  block of uncoupler (CCCP 20 μM) induced proteolytic processing of OPA1: not

## C[C@@H]1C[C@@H]([C@H](O)CC2CC(=O)NC(=O)C2)C(=O)[C@@H](C)C1 [cycloheximide]
[3]; CHX 175 μg/ml
  recovery of tubular mitochondrial network and reappearance of large OPA1 isoforms after CCCP removal: impaired
[3]; CHX 175 μg/ml with CCCP 20 μM
  effect on uncoupler-induced fragmentation and OPA1 processing: did not interfere

## c1cnc2c(c1)ccc1cccnc12 [o-phenanthroline]
[5]
  block of uncoupler (CCCP 20 μM) induced proteolytic processing of OPA1: block; also recorded: (at least partially) blocked
[5]; listed as ortho-phenanthroline
  block of uncoupler (CCCP 20 μM) induced proteolytic processing of OPA1: inhibited

## CN[C@@H]1C[C@H]2O[C@@](C)([C@@H]1OC)n1c3ccccc3c3c4c(c5c6ccccc6n2c5c31)C(=O)NC4 [staurosporine]
[6]
  time to fragmentation of mitochondria: 2 to 3 h
[6]; only after 5-6 h
  cells that released cytochrome c: more than 50%
[6]; western blot
  change of OPA1 isoforms: disappearance of the two largest OPA1 isoforms
